This note sets out measurements from PubChem BioAssay (NCI).

SMILES strings stand for the structures.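 Five compound concentrations were applied to cells in 96-well plates for 48 hours; endpoints were derived by simple linear interpolation of the resulting dose-response curve. At the GI50, growth is halved. TGI denotes the concentration required for complete inhibition of growth.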

What all share (assay): NCI-60 cell line screen, 48 h
Experiment [1] relates to SK-MEL-28 melanoma.
In experiment [2] the test system is CCRF-CEM leukemia.
In experiment [3] the test system is MDA-MB-231 breast.
Experiment [4] has as its system A498 renal.
Experiment [5] concerns HL-60(TB) leukemia.
Experiment [6] concerns SR leukemia.
Experiment [7] relates to HS 578T breast.
Experiment [8] has as its system SW-620 colon.
Experiment [9] has as its system BT-549 breast.
Experiment [10] has as its system HT29 colon.

As to `CCn1cnc(C[C@H](NC(=O)[C@@H](NC(=O)Nc2cc(C(F)(F)F)cc(C(F)(F)F)c2)C(C)C)C(=O)OC)c1`, the GI50 is 1.98 µM in experiment [1]; 3.38 µM in [2]; 1.9 µM in experiment [3]; over 10 µM in experiment [4]; 6.18 µM in experiment [5]; 2.38 µM in experiment [6]. For the same molecule, the GI50 in experiment [7] was 2.18 µM; in experiment [8] it was 2.01 µM; in [9], 1.78 µM; in [10], 2.02 µM. Moreover, the TGI in experiment [1] is 4.28 µM; in experiment [2] it was over 10 µM; in experiment [3] it was 4.11 µM; in [4] it was over 10 µM; in experiment [5], over 10 µM; in experiment [6], 7.86 µM. In addition, the TGI in experiment [7] came to 6.11 µM; in [8], 4.01 µM; in experiment [9], 3.58 µM; in experiment [10], 4.1 µM.

With `O=c1cc(-c2ccccc2F)[nH]c2ccc(N3CCCC3)cc12`, the GI50 was 82.3 µM in experiment [1]; under 0.001 µM in [2]; over 100 µM in experiment [3]; 7.32 µM in experiment [4]; under 0.001 µM in experiment [5]; under 0.001 µM in experiment [6]. The GI50 in experiment [7] and in [10] was under 0.001 µM in each case. Also, the TGI in experiment [1], in experiment [2], in experiment [3], in [4], in experiment [8] and in experiment [9] was over 100 µM each time.

With `NC(=O)c1ccccc1Nc1ccc2nnc(-c3ccncc3)n2n1`, the GI50 in [1] was 15.3 µM; in experiment [2], 3.12 µM; in experiment [3], 9.39 µM; in experiment [4], 14.2 µM; in experiment [5], 14.3 µM; in experiment [6] it was 2.83 µM. In addition, the GI50 in experiment [7] was 18.1 µM; in [8], 5.6 µM; in [9], 1.9 µM; in [10], 6.39 µM. The TGI is 29.8 µM in experiment [1]; 17.4 µM in [2]; 25.6 µM in [3]; 27.2 µM in experiment [4]; 39.6 µM in [5]; 14.6 µM in [6]. For the same molecule, the TGI stood at 58.3 µM in [7], 19.1 µM in [8], 3.83 µM in experiment [9] and 19.2 µM in experiment [10].

Regarding `COc1c(O)cc2oc(-c3ccc(O)cc3)cc(=O)c2c1O`, the TGI was over 100 µM in experiment [1]; 65.1 µM in experiment [2]; over 100 µM in experiment [3]; 16.1 µM in experiment [4]; over 100 µM in experiment [5]; 63.6 µM in [6]. In addition, the TGI in experiment [7] was 73.8 µM; in experiment [8], over 100 µM; in experiment [9] it was over 100 µM; in experiment [10], over 100 µM.

As for `O=C(Nc1cccc(-n2cc(-c3ccncc3)c(-c3cc(O)cc(Cl)c3)n2)c1)Nc1ccc(Cl)c(C(F)(F)F)c1`, the GI50 in experiment [1] was 2.01 µM; in experiment [2], 2.73 µM; in [3], 1.86 µM; in [4], 3.9 µM; in experiment [5] it was 2.86 µM; in [6], 2.01 µM. Besides, the GI50 was 3.29 µM in experiment [7], 3.29 µM in experiment [8], 2.25 µM in experiment [9] and 2.12 µM in [10]. For the same molecule, the TGI in experiment [1] was determined as 6.2 µM; in experiment [2] it was 8.93 µM; in experiment [3], 5.85 µM; in experiment [4] it was 15.5 µM; in [5], 6.62 µM; in experiment [6], 5.18 µM. Moreover, the TGI is over 100 µM in [7], 10.7 µM in experiment [8], 6.15 µM in [9] and 4.58 µM in [10].

For `CC(=O)OC[C@]12CC[C@@H](C(=O)CBr)[C@@H]1[C@H]1CC[C@@H]3[C@@]4(C)CCCNC(C)(C)[C@@H]4CC[C@@]3(C)[C@]1(C)CC2`, the GI50 in experiment [1] was 2.23 µM; in experiment [2] it was 1.06 µM; in experiment [3], 3.72 µM; in experiment [4], 15 µM; in [5] it was 2.11 µM; in experiment [6], 2 µM. The GI50 in experiment [7] is 15.9 µM; in [8], 2.77 µM; in experiment [9], 2.2 µM; in experiment [10], 3.07 µM. Moreover, the TGI in [1] stood at 4.23 µM; in [2], 3.29 µM; in experiment [3], 17.9 µM; in [4], 28.5 µM; in experiment [5], 4.95 µM; in experiment [6], 5.71 µM. In addition, the TGI in [7] is over 100 µM; in experiment [8], 8.06 µM; in [9], 5.52 µM; in experiment [10], 10.5 µM.

For the molecule `COc1ccc2c(=O)cc(-c3ccncc3)oc2c1OC`, the TGI in experiment [1] was 93.1 µM; in experiment [2], 71.1 µM; in [3], over 100 µM; in experiment [4] it was 49.8 µM; in experiment [5], 50.6 µM; in [6], 39.4 µM. For the same molecule, the TGI in experiment [7] was 53.7 µM; in experiment [8], over 100 µM; in [9], 98.4 µM; in experiment [10], over 100 µM.

As to `CCCCC[C@H]1C/C=C2/C(=O)C=C[C@@H]2C/C=C\CCCC(=O)O[C@@H](CCCCC)C/C=C2/C(=O)C=C[C@@H]2C/C=C\CCCC(=O)O1`, the GI50 in [1] was 0.196 µM; in experiment [2], 0.082 µM; in [3], 0.132 µM; in experiment [4], 0.449 µM; in [5], 0.136 µM; in experiment [6] it was 0.0825 µM. Moreover, the GI50 in [7] is 1.28 µM; in [8], 0.135 µM; in experiment [9], 0.32 µM; in [10], 0.218 µM. Also, the TGI in experiment [1] is 0.675 µM; in experiment [2], 1.42 µM; in experiment [3], 2.17 µM; in experiment [4] it was 0.863 µM; in experiment [5], 0.704 µM; in experiment [6] it was 0.52 µM. Also, the TGI was 10.1 µM in experiment [7], 0.734 µM in experiment [8], 1.02 µM in [9] and 0.822 µM in experiment [10].
